What is called IC50 is the concentration that gives 50% inhibition.

We go through 24 compounds from patent US6215002A, “Pyrrolopyrrolone derivatives as inhibitors of neutrophil elastase” (priority 1996, dated 2001).

Structures can show the parent of a compound that is named as a salt.

The assay concerns the target T1, human neutrophil elastase (Homo sapiens, UniProt P08246).
T1 sequence (P08246 30-267): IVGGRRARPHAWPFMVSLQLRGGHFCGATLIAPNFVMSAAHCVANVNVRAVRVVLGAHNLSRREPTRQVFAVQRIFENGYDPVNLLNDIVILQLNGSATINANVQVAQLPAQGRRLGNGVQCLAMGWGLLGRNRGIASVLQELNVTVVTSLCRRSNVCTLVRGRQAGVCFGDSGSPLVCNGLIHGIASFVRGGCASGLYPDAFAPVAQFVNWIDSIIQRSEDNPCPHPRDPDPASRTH
Nature of the assay: In vitro assay of human neutrophil elastase (HNE). Type of assay: biochemical. As to conditions: 118 nM purified human neutrophil elastase, pH 8.6, 15 min incubation at 30° C., MeO-succinyl-alanyl-alanyl-prolyl-valyl-p-nitroanilide substrate; read-out: HNE IC50. In a few lines: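 Residual activity was taken as the 10 min rate of absorbance rise at 405 nm after adding 0.6 mM MeO-succinyl-AAPV-p-nitroanilide. Curve fitting of activity against concentration gave IC50.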
With `CCC[C@H]1C(=O)N(S(=O)(=O)c2cccc3nsnc23)[C@H]2CCN(C(=O)CCN3CCCCC3)[C@H]12` (relative stereo) [Example 168, rel-(3R,3aR,6aS)-1-(Benzo[1,2,5]thiadiazole-4-sulfonyl)-4-(3-piperidin-1-yl-propionyl)-3-propyl-hexahydro-pyrrolo[3,2-b]pyrrol-2-one DL-tartrate], the IC50 came to 208 nM.

In the case of `CCC[C@H]1C(=O)N(S(=O)(=O)c2cccs2)[C@H]2CCN(C(=O)CCCCCN3CCCCC3)[C@H]12` (relative stereo) [Example 169, rel-(3R,3aR,6aS)-4-(6-Piperidin-1-yl-hexanoyl)-3-propyl-1-(thiophene-2-sulfonyl)-hexahydro-pyrrolo[3,2-b]pyrrol-2-one DL-tartrate], the IC50 is 29 nM.

On to `CCC[C@H]1C(=O)N(S(=O)(=O)c2c(C)noc2C)[C@H]2CCN(C(=O)CCN3CCCCC3)[C@H]12` (relative stereo) [Example 170, rel-(3R,3aR,6aS)-1-(3,5-Dimethyl-isoxazole-4-sulfonyl)-4-(3-piperidin-1-yl-propionyl)-3-propyl-hexahydro-pyrrol[3,2-b]pyrrol-2-one DL-tartrate], for which the IC50 came out at 180 nM.

Take `CCC[C@H]1C(=O)N(S(=O)(=O)c2ccccn2)[C@H]2CCN(C(=O)CCN3CCCCC3)[C@H]12` (relative stereo) [Example 171, rel-(3R,3aR,6aS)-4-(3-Piperidin-1-yl-propionyl)-3-propyl-1-(pyridine-2-sulfonyl)-hexahydro-pyrrolo[3,2-b]pyrrol-2-one hydrochloride]: the IC50 came to 39 nM.

As to `CCC[C@H]1C(=O)N(S(=O)(=O)c2cccnc2)[C@H]2CCN(C(=O)CCN3CCCCC3)[C@H]12` (relative stereo) [Example 172, rel-(3R,3aR,6aS)-4-(3-Piperidin-1-yl-propionyl)-3-propyl-1-(pyridine-3-sulfonyl)-hexahydro-pyrrolo[3,2-b]pyrrol-2-one dihydrochloride], the IC50 turned out to be 69 nM.

As for `CCC[C@H]1C(=O)N(S(C)(=O)=O)[C@H]2CCN(S(=O)(=O)c3ccc(CN4CCCCC4)cc3)[C@H]12` (relative stereo) [Example 194, rel-(3R,3aR,6aS)-1-Methanesulfonyl-4-(4-piperidin-1-ylmethyl-benzenesulfonyl)-3-propyl-hexahydro-pyrrolo[3,2-b]pyrrol-2-one hydrochloride], the IC50 was 60 nM.

On to `CCC[C@H]1C(=O)N(S(C)(=O)=O)[C@H]2CCN(S(=O)(=O)c3ccc(CN4CCCCCC4)cc3)[C@H]12` (relative stereo) [Example 195, rel-(3R,3aR,6aS)-4-(4-Azepin-1-ylmethyl-benzenesulfonyl)-1-methanesulfonyl-3-propyl-hexahydro-pyrrolo[3,2-b]pyrrol-2-one hydrochloride], for which the IC50 is 68 nM.

`CCC[C@H]1C(=O)N(S(C)(=O)=O)[C@H]2CCN(S(=O)(=O)c3ccc(CN(C)C)cc3)[C@H]12` (relative stereo) [Example 196, rel-(3R,3aR,6aS)-4-(4-Dimethylaminomethyl-benzenesulfonyl)-1-methanesulfonyl-3-propyl-hexahydro-pyrrolo[3,2-b]pyrrol-2-one hydrochloride]: the IC50 amounted to 34 nM.

Regarding `CC(C)[C@H]1C(=O)N(S(C)(=O)=O)[C@H]2CCN(S(=O)(=O)c3ccc(CN(C)C)cc3)[C@H]12` (relative stereo) [Example 197, rel-(3R,3aR,6aS)-4-(4-Dimethylaminomethyl-benzenesulfonyl)-3-isopropyl-1-methanesulfonyl-hexahydro-pyrrolo[3,2-b]pyrrol-2-one hydrochloride], the IC50 is 153 nM.

With `CC(C)[C@H]1C(=O)N(S(C)(=O)=O)[C@H]2CCN(S(=O)(=O)c3ccc(CN4CCCCC4)cc3)[C@H]12` (relative stereo) [Example 198, rel-(3R,3aR,6aS)-3-Isopropyl-1-methanesulfonyl-(4-piperidin-1-ylmethyl-benzenesulfonyl)-hexahydro-pyrrolo[3,2-b]pyrrol-2-one hydrochloride], the IC50 was 127 nM.

With `CC(C)[C@H]1C(=O)N(S(C)(=O)=O)[C@H]2CCN(S(=O)(=O)c3ccc(CN4CCCCCC4)cc3)[C@H]12` (relative stereo) [Example 199, rel-(3R,3aR,6aS)-4-(4-Azepin-1-ylmethyl-benzenesulfonyl)-3-isopropyl-1-methanesulfonyl-hexahydro-pyrrolo[3,2-b]pyrrol-2-one hydrochloride], the IC50 worked out at 99 nM.

Turning to `CCC[C@H]1C(=O)N(S(=O)(=O)c2ccc(C(F)(F)F)cc2)[C@H]2CCN(C(=O)CCCCCN3CCCCC3)[C@H]12` (relative stereo) [Example 202, rel-(3R,3aR,6aS)-4-(6-Piperidin-1-yl-hexanoyl)-3-propyl-1-(4-trifluoromethyl-benzenesulfonyl)-hexahydro-pyrrolo[3,2-b]pyrrol-2-one DL-tartrate], the IC50 amounted to 38 nM.

Turning to `CCC[C@H]1C(=O)N(S(=O)(=O)c2ccc([N+](=O)[O-])cc2)[C@H]2CCN(C(=O)CCCCCN3CCCCC3)[C@H]12` (relative stereo) [Example 203, rel-(3R,3aR,6aS)-1-(4-Nitro-benzenesulfonyl)-4-(6-piperidin-1-yl-hexanoyl)-3-propyl-hexahydro-pyrrolo[3,2-b]pyrrol-2-one DL-tartrate], the IC50 is 38 nM.

Turning to `CCCCOc1ccc(S(=O)(=O)N2C(=O)[C@H](CCC)[C@@H]3[C@@H]2CCN3C(=O)CCCCCN2CCCCC2)cc1` (relative stereo) [Example 204, rel-(3R,3aR,6aS)-1-(4-Butoxy-benzenesulfonyl)-4-(6-piperidin-1-yl-hexanoyl)-3-propyl-hexahydro-pyrrolo[3,2-b]pyrrol-2-one DL-tartrate], the IC50 is 98 nM.

In the case of `CCC[C@H]1C(=O)N(S(=O)(=O)c2ccc(C#N)cc2)[C@H]2CCN(C(=O)CCCCCN3CCCCC3)[C@H]12` (relative stereo) [Example 205, rel-4-[2-Oxo-4-(6-piperidin-1-yl-hexanoyl)-3R-propyl-hexahydro-(3aR,6aS)-pyrrolo[3,2-b]pyrrole-1-sulfonyl]-benzonitrile DL-tartrate], the IC50 was determined as 28 nM.

Turning to `CCC[C@H]1C(=O)N(S(=O)(=O)c2ccccc2)[C@H]2CCN(C(=O)CCCCCN3CCCCC3)[C@H]12` (relative stereo) [Example 206, rel-(3R,3aR,6aS)-1-Benzenesulfonyl-4-(6-piperidin-1-yl-hexanoyl)-3-propyl-hexahydro-pyrrol[3,2-b]pyrrol-2-one DL-tartrate], the concentration for half-maximal inhibition (IC50) stood at 87 nM.

As to `CCC[C@H]1C(=O)N(S(=O)(=O)c2ccc(Cl)cc2)[C@H]2CCN(C(=O)CCCCCN3CCCCC3)[C@H]12` (relative stereo) [Example 207, rel-(3R,3aR,6aS)-1-(4-Chloro-benzenesulfonyl)-4-(6-piperidin-1-yl-hexanoyl)-3-propyl-hexahydro-pyrrolo[3,2-b]pyrrol-2-one DL-tartrate], the IC50 turned out to be 38 nM.

`CCC[C@H]1C(=O)N(S(=O)(=O)c2ccccc2)[C@H]2CCN(S(=O)(=O)CCCN3CCCCC3)[C@H]12` (relative stereo) [Example 208, rel-(3R,3aR,6aS)-1-Benzenesulfonyl-4-(3-piperidin-1-yl-propane-1-sulfonyl)-3-propyl-hexahydro-pyrrolo[3,2-b]pyrrol-2-one DL-tartrate]: the IC50 turned out to be 54 nM.

With `CCC[C@H]1C(=O)N(S(=O)(=O)c2ccc(N)cc2)[C@H]2CCN(C(=O)CCCCCN3CCCCC3)[C@H]12` (relative stereo) [Example 209, rel-(3R,3aR,6aS)-1-(4-Amino-benzenesulfonyl)-4-(6-piperidin-1-yl-hexanoyl)-3-propyl-hexahydro-pyrrolo[3,2-b]pyrrol-2-one DL-tartrate], the IC50 came to 71 nM.

In the case of `CC(=O)Nc1ccc(S(=O)(=O)N2CC[C@H]3[C@H]2[C@@H](C(C)C)C(=O)N3S(C)(=O)=O)cc1` (relative stereo) [Example 210, rel-N-[4-(6R-Isopropyl-4-methanesufonyl-5-oxo-hexahydro-(3aS,6aR)-pyrrolo[3,2-b]pyrrole-1-sulfonyl)-phenyl]-acetamide], the IC50 was found to be 103 nM.

Regarding `CCC[C@H]1C(=O)N(S(C)(=O)=O)[C@H]2CCN(S(=O)(=O)c3ccc([N+](=O)[O-])cc3)[C@H]12` (relative stereo) [Example 211, rel-(3R,3aR,6aS)-1-Methanesulfonyl-4-(4-nitro-benzenesulfonyl)-3-propyl-hexahydro-pyrrolo[3,2-b]pyrrol-2-one], the IC50 amounted to 140 nM.

Take `CCC[C@H]1C(=O)N(S(C)(=O)=O)[C@H]2CCN(S(=O)(=O)c3ccc(N4CCCC4=O)cc3)[C@H]12` (relative stereo) [Example 212, rel-(3R,3aR,6aS)-1-Methanesulfonyl-4-[4-(2-oxo-pyrrolidin-1yl)-benzenesufonyl]-3-propyl-hexahydro-pyrrolo[3,2-b]pyrrol-2-one]: the IC50 turned out to be 30 nM.

As for `CCC[C@H]1C(=O)N(S(C)(=O)=O)[C@H]2CCN(S(=O)(=O)c3ccc(NC(C)=O)c(Cl)c3)[C@H]12` (relative stereo) [Example 213, rel-N-[2-Chloro-4-(4-methanesulfonyl-5-oxo-6R-propyl-hexahydro-(3aS,6aR)-pyrrolo[3,2-b]pyrrole-1-sulfonyl)-phenyl]-acetamide], the IC50 worked out at 40 nM.

For `CCCCOc1ccc(S(=O)(=O)N2CC[C@H]3[C@H]2[C@@H](CCC)C(=O)N3S(C)(=O)=O)cc1` (relative stereo) [Example 214, rel-(3R,3aR,6aS)-4-(4-Butoxy-benzenesulfonyl)-1-methanesulfonyl-3-propyl-hexahydro-pyrrolo[3,2-b]pyrrol-2-one], the IC50 was 464 nM.
